# Experimental data: patent US20190105337A1, “METHODS OF TREATING BACTERIAL INFECTIONS” (priority 2015, published 2019)
# Where two headings read alike, the source gives them in different places.
# How the values were obtained:
# Plasma protein binding = format: in vitro ADME
# [1] = human, in vivo
# Method: Forty one subjects were enrolled in 5 groups based on their degree of renal insufficiency. The five cohorts included: patients with normal renal function (CrCl≥90 ml/min), mild renal impairment (CrCl 60-89 ml/min), moderate renal impairment (CrCl 30-<60 ml/min), severe renal impairment (CrCl<30 ml/min, and patients with end stage renal disease requiring hemodialysis. Patients on renal replacement therapy other than standard hemodialysis (including continuous veno-venous hemofiltration, continuous veno-venous hemodialysis and continuous renal replacement therapy) were not studied.
# clinical [2] = settings: human, in vivo; for clearance: Plasma Clearance; for Vd: Vss
# Method: All infusions were administered over 3 hours. Intensive plasma and urine PK sampling was obtained after dosing and assayed using validated HPLC/MS methods.
# clinical [3] = settings: both, human, in vivo
# Method: A total of twenty-five (n=25) male and female subjects who met the study entry criteria and completed all phases of the pharmacokinetic study were included in this pharmacokinetic analysis. […] Blood samples were collected to measure drug concentrations in plasma prior to (time 0), and at 1.5, 2.95, 3.083, 3.25, 3.5, 4, 6, and 8 hours after the start of a 3-hour intravenous infusion of the third combination dose.
# Urea has been commonly used as an endogenous marker to estimate the apparent volume of ELF. Blood samples to determine plasma urea concentrations were obtained just prior to scheduled bronchoscopy. Aliquots of BAL were obtained to determine urea concentrations in BAL and cell count with differential. The standardized bronchoscopy with BAL procedure for the collection of intrapulmonary samples has been previously described in the references listed below.
# (Reports MC14B-0013, MC14B-0015, MC14I-011, and MC14I-0012). The urea concentrations in plasma and BAL were performed with a microplate-based method with an 0-phthalaldehyde chromogenic solution at MicroConstants, Inc., San Diego, Calif.
# The calculations of ELF volume and drug concentrations in ELF and AM were performed with BAL supernatant and pulmonary (alveolar) cells (“cell pellet”) from aspirates recovered from the 2nd, 3rd, and 4th instillations (BAL2). The concentration of drug (ABXELF) in the epithelial lining fluid (ELF) was determined as follows:
# […]
# VELF is derived from the following:
# where UreaBAL is the concentration of urea in BAL fluid and UreaP is the concentration of urea in plasma.
# The concentration of drug (ABXAM) in the alveolar cells (AC) was determined as follows:
# Differential cell count was performed to determine the number of macrophages present. A mean macrophage cell volume of 2.42 μl/106 cells was used in the calculations for volume of alveolar cells in the pellet suspension.
# The concentration ratios of ELF and AM to the simultaneous plasma concentrations were calculated for each subject and summarized for each group at each sampling time. […] The 8-hour sampling time was also used as a value at time zero for determining the area term of plasma, ELF, and AM. The AUC0-8 for each matrix was determined with the linear trapezoidal method. The ratio of AUC0-8 of ELF to plasma and AM to plasma were calculated.
# [4] = In vitro hollow fiber model: pharmacokinetic parameters of meropenem and Compound I in the central compartment (Tables E, F)
# Method: In Vitro PK-PD Model: Six medium sized hollow-fiber cartridges (FiberCell Systems) were used per experiment. Three strains studied in duplicate were used for each experiment. Log-phase cells were inoculated and incubated for 2 hours prior to the start of treatment to achieve about 10^8 CFU/mL. Target PK parameters are listed in Tables E and F. The exposures were based on the published literatures disclosed in Example 2. Samples were collected from the central compartment for the determination of drug concentrations over a 32 hour period and were analyzed using an LC-MS/MS method.
# [5] = AM concentration at time of bronchoscopy and BAL
# [6] = AUC0-8 based on mean ELF concentrations
# [7] = AUC0-8 based on median ELF concentrations
# [8] = ELF concentration at time of bronchoscopy and BAL
# [9] = Plasma concentration at time of bronchoscopy and BAL
# [10] = Ratio AM to Plasma (total plasma concentration)
# [11] = Ratio ELF to Plasma (total plasma concentration)
# [12] = intrapulmonary penetration based on AUC0-8 of ELF and total plasma concentrations
# [13] = intrapulmonary penetration, unbound plasma concentrations
# [14] = mean ratios of ELF to simultaneous plasma concentrations (range)
# [15] = ratio of ELF to total plasma concentrations based on mean AUC0-8
# [16] = ratio of ELF to total plasma concentrations based on median AUC0-8
# [17] = ratio of ELF to unbound plasma concentrations based on mean AUC0-8
# [18] = ratio of ELF to unbound plasma concentrations based on median AUC0-8
# [19] = combination Compound I/meropenem (Table F)
# [20] = Ratio of ELF to total Plasma concentration
compound,measurement,setting,value
O=C(O)C[C@@H]1CC[C@H](NC(=O)Cc2cccs2)B(O)O1 [Compound I],fraction unbound,Plasma protein binding,0.67
same,non-renal clearance,[1],no measurable non-renal clearance
same,AUC(0-inf),clinical [2]; 250 mg,17.5 µg·h/mL
same,Cmax,"clinical [2]; 250 mg, Cmax",5200 ng/mL
same,half-life,clinical [2]; 250 mg,1.18 h
same,clearance,clinical [2]; 250 mg,245 mL/min
same,Vd,clinical [2]; 250 mg,23.1 L
same,AUC(0-inf),clinical [2]; 1000 mg,77.6 µg·h/mL
same,Cmax,"clinical [2]; 1000 mg, Cmax",22000 ng/mL
same,half-life,clinical [2]; 1000 mg,1.56 h
same,clearance,clinical [2]; 1000 mg,222 mL/min
same,Vd,clinical [2]; 1000 mg,21.4 L
same,AUC(0-inf),clinical [2]; 1500 mg,124 µg·h/mL
same,Cmax,"clinical [2]; 1500 mg, Cmax",37200 ng/mL
same,half-life,clinical [2]; 1500 mg,1.21 h
same,clearance,clinical [2]; 1500 mg,206 mL/min
same,Vd,clinical [2]; 1500 mg,19.4 L
same,concentration at 1.5 h,clinical [3]; [5],2710 ± 1440 ng/mL
same,concentration at 3.25 h,clinical [3]; [5],8790 ± 9430 ng/mL
same,concentration at 4 h,clinical [3]; [5],5510 ± 3150 ng/mL
same,concentration at 6 h,clinical [3]; [5],27600 ± 39600 ng/mL
same,concentration at 8 h,clinical [3]; [5],4400 ± 4100 ng/mL
same,AUC(0-t),clinical [3]; [6],105 µg·h/mL
same,AUC(0-t),clinical [3]; [7],96.7 µg·h/mL
same,concentration at 1.5 h,clinical [3]; [8],18600 ± 3800 ng/mL
same,concentration at 3.25 h,clinical [3]; [8],26100 ± 1100 ng/mL
same,concentration at 4 h,clinical [3]; [8],15700 ± 3400 ng/mL
same,concentration at 6 h,clinical [3]; [8],8030 ± 5800 ng/mL
same,concentration at 8 h,clinical [3]; [8],2610 ± 1350 ng/mL
same,concentration at 1.5 h,clinical [3]; [9],42100 ± 5000 ng/mL
same,concentration at 3.25 h,clinical [3]; [9],51100 ± 6800 ng/mL
same,concentration at 4 h,clinical [3]; [9],28200 ± 5300 ng/mL
same,concentration at 6 h,clinical [3]; [9],10800 ± 2800 ng/mL
same,concentration at 8 h,clinical [3]; [9],2740 ± 1120 ng/mL
same,Kp at 1.5 h,clinical [3]; [10],0.062 ± 0.029
same,Kp at 3.25 h,clinical [3]; [10],0.165 ± 0.163
same,Kp at 4 h,clinical [3]; [10],0.191 ± 0.101
same,Kp at 6 h,clinical [3]; [10],2.58 ± 3.57
same,Kp at 8 h,clinical [3]; [10],1.6 ± 1.1
same,Kp at 1.5 h,clinical [3]; [11],0.45 ± 0.123
same,Kp at 3.25 h,clinical [3]; [11],0.508 ± 0.096
same,Kp at 4 h,clinical [3]; [11],0.57 ± 0.159
same,Kp at 6 h,clinical [3]; [11],0.705 ± 0.329
same,Kp at 8 h,clinical [3]; [11],1.01 ± 0.391
same,Kp,clinical [3]; [12],~0.53
same,Kp,clinical [3]; [13],0.79
same,Kp at 6 h,clinical [3]; mean ratio of AM to plasma concentration,2.58 ± 3.57
same,Kp,clinical [3]; mean ratios of AM to simultaneous plasma concentration (range),0.062 to 2.58
same,Kp,clinical [3]; [14],0.45 to 1.01
same,Kp,clinical [3]; [15],0.53
same,Kp,clinical [3]; [16],0.48
same,Kp,clinical [3]; [17],0.79
same,Kp,clinical [3]; [18],0.72
same,"AUC, Average Compound I Actual",[4]; [19],105.3 µg·h/mL
same,"Cmax, Average Compound I Actual",[4]; [19],26400 ng/mL
same,"Half-Life, Average Compound I Actual",[4]; [19],1.5 h
"C[C@@H](O)[C@H]1C(=O)N2C(C(=O)O)=C(S[C@@H]3CN[C@H](C(=O)N(C)C)C3)[C@H](C)[C@H]12 [meropenem, Meropenem]",fraction unbound,Plasma protein binding,0.94
same,fraction unbound,Plasma protein binding; human,0.98
same,non-renal clearance,[1],non-renal clearance assumes a greater proportion of total clearance
same,AUC(0-∞),clinical [2],130.34 µg·h/mL
same,Cmax,clinical [2],42540 ng/mL
same,half-life,clinical [2],0.98 h
same,clearance,clinical [2],334 mL/min
same,Vd,clinical [2],25.9 L
same,AUC(0-t),clinical [3]; [6],112 µg·h/mL
same,AUC(0-t),clinical [3]; [7],102 µg·h/mL
same,concentration at 1.5 h,clinical [3]; Concentration in ELF,21400 ± 4000 ng/mL
same,concentration at 3.25 h,clinical [3]; Concentration in ELF,28300 ± 6700 ng/mL
same,concentration at 4 h,clinical [3]; Concentration in ELF,16100 ± 4800 ng/mL
same,concentration at 6 h,clinical [3]; Concentration in ELF,7520 ± 5290 ng/mL
same,concentration at 8 h,clinical [3]; Concentration in ELF,2510 ± 1130 ng/mL
same,concentration at 1.5 h,clinical [3]; Concentration in Plasma,41200 ± 5000 ng/mL
same,concentration at 3.25 h,clinical [3]; Concentration in Plasma,47700 ± 7300 ng/mL
same,concentration at 4 h,clinical [3]; Concentration in Plasma,23800 ± 4300 ng/mL
same,concentration at 6 h,clinical [3]; Concentration in Plasma,7240 ± 2790 ng/mL
same,concentration at 8 h,clinical [3]; Concentration in Plasma,1360 ± 510 ng/mL
same,Kp at 1.5 h,clinical [3]; [20],0.525 ± 0.107
same,Kp at 3.25 h,clinical [3]; [20],0.59 ± 0.079
same,Kp at 4 h,clinical [3]; [20],0.705 ± 0.302
same,Kp at 6 h,clinical [3]; [20],1.04 ± 0.475
same,Kp at 8 h,clinical [3]; [20],2.13 ± 1.37
same,Kp,clinical [3]; [12],~0.63
same,Kp,clinical [3]; [13],0.65
same,Kp,clinical [3]; [14],0.525 to 2.13
same,Kp,clinical [3]; [15],0.63
same,Kp,clinical [3]; [16],0.58
same,Kp,clinical [3]; [17],0.65
same,Kp,clinical [3]; [18],0.59
same,"AUC, Average Meropenem Actual",[4]; [19],131.5 µg·h/mL
same,"Cmax, Average Meropenem Actual",[4]; [19],33500 ng/mL
same,"Half-Life, Average Meropenem Actual",[4]; [19],1.4 h
same,"AUC, Average Meropenem Actual",[4]; meropenem alone (Table E),129.0 µg·h/mL
same,"Cmax, Average Meropenem Actual",[4]; meropenem alone (Table E),33900 ng/mL
same,"Half-Life, Average Meropenem Actual",[4]; meropenem alone (Table E),1.3 h
